The text below walks through data of patent US10336762B2 (priority 2017, dated 2019).

One may read the IC50 as the concentration needed to halve the response being measured. Higher therefore signals lower potency. By EC50 is commonly meant the concentration at which the effect is half-maximal.

Where two headings read alike, the source gives them in different places. Where only a bound is given, the exact number is not on record here.

For one assay, the target named is IRAK4 enzyme (Homo sapiens (Human), UniProt Q9NWZ3). The assay is described as follows: biochemical. In kind it is biochemical.
A further assay concerns TNFα. The assay is described as follows: cells. In kind it is cell-based, human. The following applies: Homo sapiens, Monocyte, read-out: EC50 TNF.
The mark [1] stands for this setting: IRAK4 enzyme, TR-FRET, 500 μM ATP.
The mark [2] stands for this setting: LPS-stimulated human monocytes, TNFα content.

Chain of IRAK4 enzyme (Q9NWZ3 whole entry): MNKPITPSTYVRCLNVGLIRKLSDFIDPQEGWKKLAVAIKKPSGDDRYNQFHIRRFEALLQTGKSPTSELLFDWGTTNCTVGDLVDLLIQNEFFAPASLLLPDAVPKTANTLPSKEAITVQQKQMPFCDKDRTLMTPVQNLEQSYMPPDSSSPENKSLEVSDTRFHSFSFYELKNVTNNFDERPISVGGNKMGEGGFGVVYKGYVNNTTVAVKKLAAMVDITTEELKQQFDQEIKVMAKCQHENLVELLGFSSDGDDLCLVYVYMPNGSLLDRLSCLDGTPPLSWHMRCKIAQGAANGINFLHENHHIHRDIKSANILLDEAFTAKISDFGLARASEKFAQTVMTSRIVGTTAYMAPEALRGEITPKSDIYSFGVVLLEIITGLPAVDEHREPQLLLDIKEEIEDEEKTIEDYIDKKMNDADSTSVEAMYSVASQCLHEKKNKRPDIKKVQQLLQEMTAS

The molecule `CC(=O)N[C@H]1CC[C@H](Nc2cc(-c3ccc4cc(C#N)cnn34)ncc2C(=O)NC[C@@H](F)C(C)(C)O)CC1` [Example 326, 4-(((1r,4R)-4-acetamidocyclohexyl)amino)-6-(3-cyanopyrrolo[1,2-b]pyridazin-7-yl)-N-((R)-2-fluoro-3-hydroxy-3-methylbutyl)nicotinamide] returned an IC50 on IRAK4 enzyme of less than 1 nM. Also, the EC50 in the assay with TNFα stood at 56 nM.

Turning to `CC(C)(O)[C@H](F)CNC(=O)c1cnc(-c2ccc3cc(C#N)cnn23)cc1NC1CCNC(=O)C1` (stereo partly drawn) [Example 327, 6-(3-cyanopyrrolo[1,2-b]pyridazin-7-yl)-N-((R)-2-fluoro-3-hydroxy-3-methylbutyl)-4-((2-oxo-piperidin-4-yl)amino)nicotinamide], the IC50 on IRAK4 enzyme (setting [1]) was found to be 1 nM. Further, the EC50 in the assay with TNFα (setting [2]) is 738 nM.

At IRAK4 enzyme (setting [1]), `COCC(=O)N1CCC(Nc2cc(-c3ccc4cc(C#N)cnn34)ncc2C(=O)NC[C@@H](F)C(C)(C)O)CC1` [Example 328, (R)-6-(3-cyanopyrrolo[1,2-b]pyridazin-7-yl)-N-(2-fluoro-3-hydroxy-3-methylbutyl)-4-((1-(2-methoxyacetyl)piperidin-4-yl)amino)nicotinamide] showed an IC50 of 6 nM. Also, the EC50 with TNFα (setting [2]) was 300 nM.

With `CC(C)(O)[C@H](F)CNC(=O)c1cnc(-c2ccc3cc(C#N)cnn23)cc1NC1CCN(CC(F)(F)F)CC1` [Example 329, (R)-6-(3-cyanopyrrolo[1,2-b]pyridazin-7-yl)-N-(2-fluoro-3-hydroxy-3-methylbutyl)-4-((1-(2,2,2-trifluoroethyl)piperidin-4-yl)amino)nicotinamide], on IRAK4 enzyme (setting [1]), half-maximal inhibition (IC50) required 1 nM. In the assay on TNFα (setting [2]), the EC50 was 62 nM.

Molecule `CC(C)Nc1cc(-c2ccc3cc(C#N)cnn23)ncc1C(=O)NCC(O)C(C)(C)O` (centres unmarked) [Example 330, 6-(3-cyanopyrrolo[1,2-b]pyridazin-7-yl)-N-(2,3-dihydroxy-3-methyl-butyl)-4-(isopropylamino) nicotinamide] registered an IC50 against IRAK4 enzyme (setting [1]) of 6 nM. Besides, the EC50 in the assay with TNFα (setting [2]) worked out at 171 nM.

With `N#Cc1cnn2c(-c3cc(NC45CCC(O)(CC4)CC5)c(C(=O)NCC(=O)N4CC(F)(F)C4)cn3)ccc2c1` [Example 331, 6-(3-cyanopyrrolo[1,2-b]pyridazin-7-yl)-N-(2-(3,3-difluoroazetidin-1-yl)-2-oxoethyl)-4-((4-hydroxybicyclo[2.2.2]octan-1-yl)amino) nicotinamide], at IRAK4 enzyme (setting [1]), the IC50 is less than 1 nM. Besides, in the assay on TNFα (setting [2]), the EC50 is 25 nM.

The molecule `CC(C)Nc1cc(-c2ccc3cc(C#N)cnn23)ncc1C(=O)NCC(=O)C(C)(C)O` [Example 332, 6-(3-cyanopyrrolo[1,2-b]pyridazin-7-yl)-N-(3-hydroxy-3-methyl-2-oxobutyl)-4-(isopropyl-amino)nicotinamide] gave an IC50 on IRAK4 enzyme (setting [1]) of less than 1 nM. In the assay on TNFα (setting [2]), the EC50 stood at 43 nM.

Turning to `CN(C)C(=O)CNC(=O)c1cnc(-c2ccc3cc(C#N)cnn23)cc1NC12CCC(O)(CC1)CC2` [Example 333, 6-(3-cyanopyrrolo[1,2-b]pyridazin-7-yl)-N-(2-(dimethylamino)-2-oxo-ethyl)-4-((4-hydroxy-bicyclo[2.2.2]octan-1-yl)amino)nicotinamide], the IC50 at IRAK4 enzyme (setting [1]) is less than 1 nM. Also, in the assay on TNFα (setting [2]), the half-maximal effective concentration (EC50) came out at 87 nM.

For `CNC(=O)CNC(=O)c1cnc(-c2ccc3cc(C#N)cnn23)cc1NC12CCC(O)(CC1)CC2` [Example 334, 6-(3-cyanopyrrolo[1,2-b]pyridazin-7-yl)-4-((4-hydroxybicyclo[2.2.2]octan-1-yl)amino)-N-(2-(methylamino)-2-oxoethyl)nicotinamide], on IRAK4 enzyme (setting [1]), the half-inhibitory concentration (IC50) was less than 1 nM. In the assay with TNFα (setting [2]), the EC50 worked out at 292 nM.

For `CC(C)(O)[C@H](F)CNC(=O)c1cnc(-c2ccc3cc(C#N)cnn23)cc1Nc1nc(Cc2ccccc2)ns1` [Example 335, (R)-4-((3-benzyl-1,2,4-thiadiazol-5-yl)amino)-6-(3-cyanopyrrolo[1,2-b]pyridazin-7-yl)-N-(2-fluoro-3-hydroxy-3-methylbutyl)nicotinamide], on IRAK4 enzyme (setting [1]), the midpoint of inhibition, the IC50, lay at 3 nM. In addition, in the assay with TNFα (setting [2]), the EC50 came out at 100 nM.

For the molecule `CC(C)(O)[C@H](F)CNC(=O)c1cnc(-c2ccc3cc(C#N)cnn23)cc1Nc1nnc(Cc2ccccc2)o1` [Example 336, (R)-4-((5-benzyl-1,3,4-oxadiazol-2-yl)amino)-6-(3-cyanopyrrolo[1,2-b]pyridazin-7-yl)-N-(2-fluoro-3-hydroxy-3-methyl-butyl)nicotinamide], the IC50 against IRAK4 enzyme (setting [1]) was 5 nM. In addition, the EC50 with TNFα (setting [2]) came out at 522 nM.

`CC(C)(O)[C@H](F)CNC(=O)c1cnc(-c2ccc3cc(C#N)cnn23)cc1Nc1nc(Cc2ccccc2)cs1` [Example 337, (R)-4-((4-benzylthiazol-2-yl)amino)-6-(3-cyanopyrrolo[1,2-b]pyridazin-7-yl)-N-(2-fluoro-3-hydroxy-3-methylbutyl)nicotinamide] displayed an IC50 on IRAK4 enzyme (setting [1]) of 5 nM. In the assay with TNFα (setting [2]), the EC50 came to 73 nM.

With `CNC(=O)c1csc(Nc2cc(-c3ccc4cc(C#N)cnn34)ncc2C(=O)NC[C@@H](F)C(C)(C)O)n1` [Example 338, (R)-2-((2-(3-cyanopyrrolo[1,2-b]pyridazin-7-yl)-5-((2-fluoro-3-hydroxy-3-methylbutyl)carbamoyl)pyridin-4-yl)amino)-N-methylthiazole-4-carboxamide], the IC50 at IRAK4 enzyme (setting [1]) was 3 nM. In addition, in the assay with TNFα (setting [2]), the EC50 was 304 nM.

In the case of `COC(=O)[C@H](C)NC(=O)c1cnc(-c2ccc3cc(C#N)cnn23)cc1NC12CCC(O)(CC1)CC2` [Example 339, methyl (6-(3-cyano-pyrrolo[1,2-b]pyridazin-7-yl)-4-((4-hydroxy-bicyclo[2.2.2]octan-1-yl)amino)nicotinoyl)-L-alaninate], the IC50 against IRAK4 enzyme (setting [1]) was 1 nM. Further, the EC50 in the assay with TNFα (setting [2]) amounted to 264 nM.

In turn, `COC(=O)[C@@H](C)NC(=O)c1cnc(-c2ccc3cc(C#N)cnn23)cc1NC12CCC(O)(CC1)CC2` [Example 340, methyl (6-(3-cyano-pyrrolo[1,2-b]pyridazin-7-yl)-4-((4-hydroxy-bicyclo[2.2.2]octan-1-yl)amino)nicotinoyl)-D-alaninate] had an IC50 against IRAK4 enzyme (setting [1]) of 1 nM. Besides, the EC50 with TNFα (setting [2]) worked out at 139 nM.

Take `COC(=O)CNC(=O)c1cnc(-c2ccc3cc(C#N)cnn23)cc1NC12CCC(O)(CC1)CC2` [Example 341, methyl (6-(3-cyano-pyrrolo[1,2-b]pyridazin-7-yl)-4-((4-hydroxy-bicyclo[2.2.2]octan-1-yl)amino)nicotinoyl) glycinate]: the IC50 against IRAK4 enzyme (setting [1]) was less than 1 nM. The EC50 in the assay with TNFα (setting [2]) was determined as 16 nM.

The molecule `CC(C)(CCNC(=O)c1cnc(-c2ccc3cc(C#N)cnn23)cc1NC12CCC(O)(CC1)CC2)NS(C)(=O)=O` [Example 342, 6-(3-cyanopyrrolo[1,2-b]pyridazin-7-yl)-4-((4-hydroxybicyclo[2.2.2]octan-1-yl)amino)-N-(3-methyl-3-(methyl-sulfonamido)butyl) nicotinamide] gave a 50% inhibitory concentration (IC50) on IRAK4 enzyme (setting [1]) of 1 nM. Besides, in the assay on TNFα (setting [2]), the EC50 is 83 nM.

On to `COC(=O)NC(C)(C)CCNC(=O)c1cnc(-c2ccc3cc(C#N)cnn23)cc1NC12CCC(O)(CC1)CC2` [Example 343, Methyl (4-(6-(3-cyanopyrrolo[1,2-b]pyridazin-7-yl)-4-((4-hydroxybicyclo[2.2.2]octan-1-yl)amino)nicotinamido)-2-methylbutan-2-yl)carbamate], for which the IC50 against IRAK4 enzyme (setting [1]) is 1 nM. The EC50 in the assay with TNFα (setting [2]) was determined as 38 nM.

Molecule `CC(=O)NC(C)(C)CCNC(=O)c1cnc(-c2ccc3cc(C#N)cnn23)cc1NC12CCC(O)(CC1)CC2` [Example 344, N-(3-acetamido-3-methylbutyl)-6-(3-cyanopyrrolo[1,2-b]pyridazin-7-yl)-4-((4-hydroxybicyclo[2.2.2]octan-1-yl)amino) nicotinamide] returned an IC50 against IRAK4 enzyme (setting [1]) of 2 nM. The EC50 in the assay on TNFα (setting [2]) amounted to 48 nM.

For the molecule `CC(C)(N)CCNC(=O)c1cnc(-c2ccc3cc(C#N)cnn23)cc1NC12CCC(O)(CC1)CC2` [Example 345, N-(3-amino-3-methylbutyl)-6-(3-cyanopyrrolo[1,2-b]pyridazin-7-yl)-4-((4-hydroxybicyclo[2.2.2]octan-1-yl)amino)nicotinamide], on IRAK4 enzyme (setting [1]), the half-inhibitory concentration (IC50) was 1 nM. The concentration giving a half-maximal response (EC50) in the assay on TNFα (setting [2]) was 116 nM.

For the molecule `N#Cc1cnn2c(-c3cc(NC45CCC(O)(CC4)CC5)c(C(=O)NCCC4CCCO4)cn3)ccc2c1` (centres unmarked) [Example 346, 6-(3-cyanopyrrolo[1,2-b]pyridazin-7-yl)-4-((4-hydroxybicyclo[2.2.2]octan-1-yl)amino)-N-(2-(tetrahydrofuran-2-yl)ethyl)nicotinamide], the IC50 against IRAK4 enzyme (setting [1]) came out at 1 nM. Moreover, the EC50 in the assay with TNFα (setting [2]) amounted to 18 nM.

On to `CC(C)(CCNC(=O)c1cnc(-c2ccc3cc(C#N)cnn23)cc1NC12CCC(O)(CC1)CC2)NC(=O)OC(C)(C)C` [Example 347, tert-butyl (4-(6-(3-cyanopyrrolo[1,2-b]pyridazin-7-yl)-4-((4-hydroxybicyclo[2.2.2]octan-1-yl)amino)nicotinamido)-2-methyl-butan-2-yl)carbamate], for which the IC50 against IRAK4 enzyme (setting [1]) came out at 2 nM. Besides, the concentration giving a half-maximal response (EC50) in the assay on TNFα (setting [2]) turned out to be 45 nM.

`N#CCNC(=O)c1cnc(-c2ccc3cc(C#N)cnn23)cc1NC12CCC(O)(CC1)CC2` [Example 348, N-(cyanomethyl)-6-(3-cyanopyrrolo[1,2-b]pyridazin-7-yl)-4-((4-hydroxybicyclo[2.2.2]octan-1-yl)amino) nicotinamide] had an IC50 against IRAK4 enzyme (setting [1]) of less than 1 nM. Further, the EC50 with TNFα (setting [2]) was found to be 19 nM.

`CC(C)(O)[C@H](F)CNC(=O)c1cnc(-c2ccc3cc(C#N)cnn23)cc1Nc1ccc(C(=O)N2CCC2)cc1` [Example 349, (R)-4-((4-(azetidine-1-carbonyl)phenyl)amino)-6-(3-cyanopyrrolo[1,2-b]pyridazin-7-yl)-N-(2-fluoro-3-hydroxy-3-methylbutyl)nicotinamide]: the IC50 against IRAK4 enzyme (setting [1]) is 1 nM. Also, the EC50 in the assay on TNFα (setting [2]) amounted to 77 nM.

For `CNC(=O)c1ccc(Nc2cc(-c3ccc4cc(C#N)cnn34)ncc2C(=O)NC[C@@H](F)C(C)(C)O)cc1` [Example 350, (R)-6-(3-cyanopyrrolo[1,2-b]pyridazin-7-yl)-N-(2-fluoro-3-hydroxy-3-methylbutyl)-4-((4-(methylcarbamoyl)phenyl)amino)nicotinamide], on IRAK4 enzyme (setting [1]), the IC50 was less than 1 nM. Also, the EC50 with TNFα (setting [2]) turned out to be 12 nM.
